What was measured:
[1] = system: T.b. rhodesiense STIB900; assay: T. b. rhodesiense STIB900 assay (resazurin); SI versus L6 cells; assay type: cell-based, Trypanosoma brucei rhodesiense
Protocol: (§1) L6 rat skeletal myoblasts, [29] were purchased from the American Type Culture Collection (ATCC, Rockville, MD, USA; ATCC number CRL 1458). This cell line was used for cytotoxicity testing to calculate an SI against T.b. rhodesiense and screened alongside the T.b. rhodesiense, P. falciparum, T. cruzi and L. donovani assays. L6 were also the host cells for the T. cruzi assay. Assays were performed in 96-well microtiter plates, each well containing 100 µl of RPMI 1640 medium supplemented with 1% L-glutamine (200 mM), 10% FCS, and 4000 L6 cells. Serial drug dilutions of eleven 3-fold dilution steps covering a range from 100 to 0.002 µg/ml were prepared. After 70 hours of incubation the plates were inspected under an inverted microscope to assure growth of the controls and sterile conditions. Ten µl of resazurin solution (resazurin, 12.5 mg in 100 ml double-distilled water) was then added to each well and the plates incubated for another 2 hours. Then the plates were read with a Spectramax Gemini XS microplate fluorometer (Molecular Devices Cooperation, Sunnyvale, CA, USA) using an excitation wavelength of 536 nm and an emission wavelength of 588 nm. Data was analysed using the microplate reader software Softmax Pro (Molecular Devices, USA). Podophyllotoxin was used as a positive control in the assay.
T.b. rhodesiense STIB900 stock was isolated in 1982 from a human patient in Tanzania and after several mouse passages cloned and adapted to axenic culture conditions. Fifty microliters of Minimum Essential Medium (MEM) supplemented with 25 mM HEPES, 1 g/l additional glucose, 1% MEM non-essential amino acids (100×), 0.2 mM 2-mercaptoethanol, 1 mM Na-pyruvate and 15% heat inactivated horse serum was added to each well of a 96-well microtiter plate. Serial drug dilutions of eleven 3-fold dilution steps covering a range from 100 to 0.002 µg/ml were prepared. Four thousand bloodstream form cells of T.b. rhodesiense STIB 900 in 50 µl were added to each well and the plate incubated at 37°C under a 5% CO2 atmosphere for 70 hours. Ten microlitres of resazurin solution (resazurin, 12.5 mg in 100 ml double-distilled water) was then added to each well and incubation continued for a further 2–4 hours. Plates were then read with a Spectramax Gemini XS microplate fluorometer (Molecular Devices, USA) using an excitation wavelength of 536 nm and an emission wavelength of 588 nm. Data was analysed using the microplate reader software Softmax Pro (Molecular Devices, USA). The drug melarsoprol was a positive control against T.b. rhodesiense.

[2] = system: T. cruzi Tulahuen strain C2C4; assay: T. cruzi Tulahuen strain C2C4 β-galactosidase assay; SI versus L6 cells; assay type: cell-based, Trypanosoma cruzi
Protocol: as §1
Rat skeletal myoblasts (L6 cells) were seeded in 96-well microtitre plates at 2000 cells/well in 100 µl RPMI 1640 medium with 10% FCS and 2 mM l-glutamine. After 24 hours the medium was removed and replaced by 100 µl per well containing 5000 trypomastigote forms of T. cruzi Tulahuen strain C2C4 containing the β-galactosidase (Lac Z) gene. After 48 hours the medium was removed from the wells and replaced by 100 µl fresh medium with or without a serial drug dilution of eleven 3-fold dilution steps covering a range from 100 to 0.002 µg/ml. After 96 hours of incubation the plates were inspected under an inverted microscope to assure growth of the controls and sterility. Then 50 µl of the substrate, containing chlorophenol red-β-D-galactopyranoside (CPRG) and Nonidet, was added to all wells. A colour reaction developed within 2–6 hours that could be read photometrically at 540 nm. Data were transferred into the graphic programme Softmax Pro (Molecular Devices, USA), which calculated IC50 values. The drug benznidazole was used as a positive standard in this assay.

[3] = system: L. donovani strain MHOM/ET/67/L82 axenic amastigotes; assay: L. donovani axenic amastigote fluorescence assay; SI versus L6 cells; assay type: cell-based, Leishmania donovani
Protocol: as §1
Amastigotes of L. donovani strain MHOM/ET/67/L82 were grown in axenic culture at 37°C in SM medium at pH 5.4 supplemented with 10% heat-inactivated FCS under an atmosphere of 5% CO2 in air. One hundred µl of culture medium containing 10^5 amastigotes from axenic culture with or without a serial drug dilution were seeded in 96-well microtitre plates. Serial drug dilutions of eleven 3-fold dilution steps covering a range from 100 to 0.002 µg/ml were prepared. After 70 hours of incubation the plates were inspected under an inverted microscope to assure growth of the controls and sterile conditions. Ten µl of resazurin solution (12.5 mg resazurin dissolved in 100 ml distilled water) were then added to each well and the plates incubated for another 2 hours. The plates were then read with a Spectramax Gemini XS microplate fluorometer (Molecular Devices, USA) using an excitation wavelength of 536 nm and an emission wavelength of 588 nm. Data was analysed using the software Softmax Pro (Molecular Devices, USA). Decrease of fluorescence ( = inhibition) was expressed as percentage of the fluorescence of control cultures and plotted against the drug concentrations. From the sigmoidal inhibition curves the IC50 values were calculated. Miltefosine served as a known drug control in this assay.

[4] = system: P. falciparum K1 strain; assay: P. falciparum 3H-hypoxanthine incorporation assay; SI versus L6 cells; assay type: cell-based, Plasmodium falciparum; conditions: Plasmodium falciparum, K1, L6, read-out: Reference Compound Activity P.F (IC50)
Protocol: as §1
Compounds dissolved in DMSO at 10 mg/ml were added to parasite cultures incubated in RPMI 1640 medium without hypoxanthine, supplemented with HEPES (5.94 g/l), NaHCO3 (2.1 g/l), neomycin (100 U/ml), Albumax (5 g/l) and washed human A^+ red blood cells at 2.5% haematocrit (0.3% parasitaemia). Serial drug dilutions of eleven 3-fold dilution steps covering a range from 100 to 0.002 µg/ml were prepared. The 96-well plates were incubated in a humidified atmosphere at 37°C; 4% CO2, 3% O2, 93% N2. After 48 hours, 50 µl of ^3H-hypoxanthine ( = 0.5 µCi) was added to each well of the plate. The plates were incubated for a further 24 hours under the same conditions. The plates were then harvested with a Betaplate cell harvester (Wallac, Zurich, Switzerland), and the red blood cells transferred onto a glass fibre filter then washed with distilled water. The dried filters were inserted into a plastic foil with 10 ml of scintillation fluid, and counted in a Betaplate liquid scintillation counter (Wallac, Zurich, Switzerland). IC50 values were calculated from sigmoidal inhibition curves using Microsoft Excel.

Q: What does the source list for `Nc1nc(N)nc(Nc2ccc([As]3SCC(CO)S3)cc2)n1` (stereo not shown) [Melarsoprol, melarsoprol, reference compound]?
A: IC50 ([1]; Trypanosoma brucei, L6, read-out: Reference Compound Activity T.R (IC50)): 6.28 ± 1.78 nM; Selectivity Index T.R ([1]; relative to L6 cells): 2915

Q: Which IC50 ([2]; Trypanosoma cruzi, TULAHUEN, L6, positive standard, read-out: Reference Compound Activity T.C (IC50)) does the source give for `O=C(Cn1ccnc1[N+](=O)[O-])NCc1ccccc1` [Benznidazole, benznidazole, reference compound] here?
A: 1680 ± 1930 nM

Q: And the “Selectivity Index T.C” value ([2]; relative to L6 cells)?
A: >206

Q: For `CCCCCCCCCCCCCCCCOP(=O)([O-])OCC[N+](C)(C)C` [Miltefosine, reference compound], which IC50 ([3]; Leishmania donovani, L6, known drug control, read-out: Reference Compound Activity L.D (IC50)) is on record?
A: 365 ± 93.7 nM

Q: What about the “Selectivity Index L.D” value ([3]; relative to L6 cells) of the same compound?
A: 392

Q: With `CCN(CC)CCCC(C)Nc1ccnc2cc(Cl)ccc12` (stereo not shown) [Chloroquine, reference compound] as the compound, how does the IC50 [4] read?
A: 164 ± 24.7 nM
